# “And” between values parts separate entries of the source, which are not always exact repeats. Identical values can stand only once.
# Columns and labels:
# [1] = Particle size and polydispersity index (PDI) of nanolipid particles, dynamic light scattering; format: physicochemical; conditions: LNP formulation prepared from the named cationic lipid, 25° C
# Experimental: The particle size and polydispersity index (PDI) were determined by dynamic light scattering method using a Malvern laser particle size analyzer. 10 μL of liposome solution was diluted to 1 mL with RNase-free deionized water and added to a sample pool. Each sample was measured three times. The measurement conditions were: 90° scattering angle, 25° C.
# 293T cells [2] = assay: Cell survival rate assay (CCK-8); format: cell-based
# How it was run: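 293T cells seeded at 10,000 per well and grown overnight, then exposed for 24 h to LNPs (cationic/neutral/structured/PEG lipids 49:10:39.5:1.5) carrying 1.5 μg Fluc-mRNA, or Lipofectamine 3000. Viability read by CCK-8, 1 h incubation, absorbance at 450 nm.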
# female BALB/C mice = assay: Mouse in vivo imaging of Fluc-mRNA LNP formulations; design: average radiation intensity (mRNA expression): unit not given here; conditions: for average radiation intensity (mRNA expression): 10 μg Fluc-mRNA LNP intramuscularly
# How it was run: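 Female BALB/C mice (4–6 weeks, 17–19 g) received LNP carrying 10 μg Fluc-mRNA intramuscularly. Imaging substrate given intraperitoneally at 6 h, 24 h, 48 h and 7 d; after 5 min free movement, average radiance read by IVIS Spectrum imaging.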
# 293T cells [3] = assay: Fluorescence detection of Fluc-mRNA (cell transfection efficiency of LNP formulations); format: cell-based
# How it was run: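 293T cells at 10,000 per well, adhered overnight, then given LNPs carrying 0.3 μg Fluc-mRNA (cationic:neutral:structured:polymer-conjugated lipid 49:10:39.5:1.5 molar). After 24 h, luciferase signal read with luciferase kit reagents on an IVIS imaging system as transfection efficiency.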
compound,measurement,setting,value
"CCCCCCCCC(CCCCCCCC)COC(=O)CCCCCN(CCCCCC(=O)OCC(CCCCCCCC)CCCCCCCC)CCN(C)CCO [YK-209, bis(2-octyldecyl)-6,6′-((2-(2-hydroxyethyl(methyl)amino)ethyl)azadialkyl)dihexanoate]",PDI,[1],26.6%
same,Particle size,[1],226 nm
same,Cell survival rate,"293T cells [2]; LNP containing 1.5 μg Fluc-mRNA, 24 hours, CCK-8",76.69%
same,cell survival rate higher (cytotoxicity reduced) compared with YK-221,293T cells [2]; difference of rates,55% and 55.74%
same,cell survival rate higher (toxicity lower) than that of YK-204,293T cells [2]; difference of rates,34.12%
same,cell survival rate higher (toxicity lower) than that of YK-225,293T cells [2]; difference of rates,30% and 33.28%
same,cell survival rate higher than that of ALC-0315,293T cells [2]; difference of rates,26.73%
same,cell survival rate higher than that of HHMA,293T cells [2]; difference of rates,11.13%
same,cell survival rate higher than that of Lipofectamine 3000,293T cells [2]; difference of rates,53.64%
same,cell survival rate higher than that of SM-102,293T cells [2]; difference of rates,8.14%
same,cell survival rate higher than that of YK-203,293T cells [2]; difference of rates,41.13%
same,cell survival rate higher than that of YK-205,293T cells [2]; difference of rates,17.77%
same,cell survival rate higher than that of YK-208,293T cells [2]; difference of rates,30.01%
same,cell survival rate higher than that of YK-210,293T cells [2]; difference of rates,38.31%
same,cell survival rate higher than that of YK-211,293T cells [2]; difference of rates,24.39%
same,cell survival rate higher than that of YK-212,293T cells [2]; difference of rates,41.43%
same,cell survival rate higher than that of YK-213,293T cells [2]; difference of rates,35.25%
same,cell survival rate higher than that of YK-214,293T cells [2]; difference of rates,51.11% and 50%
same,cell survival rate higher than that of YK-215,293T cells [2]; difference of rates,32.10%
same,cell survival rate higher than that of YK-216,293T cells [2]; difference of rates,30.89%
same,cell survival rate higher than that of YK-217,293T cells [2]; difference of rates,34.42%
same,cell survival rate higher than that of YK-219,293T cells [2]; difference of rates,18.08%
same,cell survival rate higher than that of YK-220,293T cells [2]; difference of rates,17.70%
same,cell survival rate higher than that of YK-222,293T cells [2]; difference of rates,42.94%
same,cell survival rate higher than that of YK-223,293T cells [2]; difference of rates,40.05%
same,cell survival rate higher than that of YK-224,293T cells [2]; difference of rates,53.22%
same,cell survival rate higher than that of YK-226,293T cells [2]; difference of rates,48.79%
same,cell survival rate higher than that of compound 21,293T cells [2]; difference of rates,7.67%
same,cell survival rate higher than that of compound 23,293T cells [2]; difference of rates,6.59%
same,"average radiation intensity, times that of ALC-0315",female BALB/C mice; 6 h,3.00 times
same,"average radiation intensity, times that of HHMA",female BALB/C mice; 6 h,3.95 times
same,"average radiation intensity, times that of SM-102",female BALB/C mice; 6 h,3.72 times
same,"average radiation intensity, times that of compound 21",female BALB/C mice; 6 h,4.20 times
same,"average radiation intensity, times that of compound 23",female BALB/C mice; 6 h,4.25 times
same,"mRNA expression level, times that of YK-204",female BALB/C mice; 6 h,71.62 times
same,"mRNA expression level, times that of YK-223",female BALB/C mice; 6 h,243.77 times
same,average radiation intensity (mRNA expression),female BALB/C mice; 6 h,2524250
same,"expression level, times that of YK-215",female BALB/C mice; 6 hours,49.92 times
same,"expression level, times that of YK-217",female BALB/C mice; 6 hours,102.67 times
same,"average radiation intensity, times that of ALC-0315",female BALB/C mice; 24 h,10.25 times
same,"average radiation intensity, times that of HHMA",female BALB/C mice; 24 h,17.05 times
same,"average radiation intensity, times that of SM-102",female BALB/C mice; 24 h,16.14 times
same,"average radiation intensity, times that of compound 21",female BALB/C mice; 24 h,17.31 times
same,"average radiation intensity, times that of compound 23",female BALB/C mice; 24 h,16.86 times
same,"mRNA expression level, times that of YK-204",female BALB/C mice; 24 h,357.40 times
same,"mRNA expression level, times that of YK-223",female BALB/C mice; 24 h,1046.60 times
same,average radiation intensity (mRNA expression),female BALB/C mice; 24 h,1869220
same,"expression level, times that of YK-215",female BALB/C mice; 24 hours,274.28 times
same,"expression level, times that of YK-217",female BALB/C mice; 24 hours,705.37 times
same,"average radiation intensity, times that of ALC-0315",female BALB/C mice; 48 h,16.50 times
same,"average radiation intensity, times that of HHMA",female BALB/C mice; 48 h,21.36 times
same,"average radiation intensity, times that of SM-102",female BALB/C mice; 48 h,20.59 times
same,"average radiation intensity, times that of compound 21",female BALB/C mice; 48 h,20.95 times
same,"average radiation intensity, times that of compound 23",female BALB/C mice; 48 h,19.61 times
same,"mRNA expression level, times that of YK-204",female BALB/C mice; 48 h,257.82 times
same,"mRNA expression level, times that of YK-223",female BALB/C mice; 48 h,927.85 times
same,average radiation intensity (mRNA expression),female BALB/C mice; 48 h,629080
same,"expression level, times that of YK-215",female BALB/C mice; 48 hours,172.82 times
same,"expression level, times that of YK-217",female BALB/C mice; 48 hours,614.34 times
same,"average radiation intensity, times that of ALC-0315",female BALB/C mice; 7 d,4.00 times
same,"average radiation intensity, times that of HHMA",female BALB/C mice; 7 d,4.96 times
same,"average radiation intensity, times that of SM-102",female BALB/C mice; 7 d,4.47 times
same,"average radiation intensity, times that of compound 21",female BALB/C mice; 7 d,4.32 times
same,"average radiation intensity, times that of compound 23",female BALB/C mice; 7 d,4.52 times
same,"expression level, times that of YK-215",female BALB/C mice; 7 d,25.84 times
same,"expression level, times that of YK-217",female BALB/C mice; 7 d,50.40 times
same,"mRNA expression level, times that of YK-204",female BALB/C mice; 7 d,34.96 times
same,"mRNA expression level, times that of YK-223",female BALB/C mice; 7 d,59.91 times
same,average radiation intensity (mRNA expression),female BALB/C mice; 7 d,26361
same,"RLU / cell transfection efficiency, times that of ALC-0315",293T cells [3]; Fluc-mRNA LNP,12.51 times
same,"RLU / cell transfection efficiency, times that of HHMA",293T cells [3]; Fluc-mRNA LNP,12.79 times
same,"RLU / cell transfection efficiency, times that of Lipofectamine 3000",293T cells [3]; Fluc-mRNA LNP,22.36 times
same,"RLU / cell transfection efficiency, times that of YK-009",293T cells [3]; Fluc-mRNA LNP,5.24 times
same,"RLU / cell transfection efficiency, times that of compound 21",293T cells [3]; Fluc-mRNA LNP,18.90 times
same,"RLU / cell transfection efficiency, times that of compound 23",293T cells [3]; Fluc-mRNA LNP,20.17 times
same,"cell transfection efficiency, times that of YK-223",293T cells [3]; Fluc-mRNA LNP,280.74 times
same,"cell transfection efficiency, times that of YK-224",293T cells [3]; Fluc-mRNA LNP,239.25 times
same,"cell transfection efficiency, times that of YK-226",293T cells [3]; Fluc-mRNA LNP,365.22 times
same,"fluorescence absorption value / cell transfection efficiency, times that of YK-203",293T cells [3]; Fluc-mRNA LNP,5.44 times
same,"fluorescence absorption value / cell transfection efficiency, times that of YK-204",293T cells [3]; Fluc-mRNA LNP,57 times and 57.85 times
same,"fluorescence absorption value / cell transfection efficiency, times that of YK-205",293T cells [3]; Fluc-mRNA LNP,20.46 times
same,"fluorescence absorption value / cell transfection efficiency, times that of YK-208",293T cells [3]; Fluc-mRNA LNP,5.46 times
same,"fluorescence absorption value / cell transfection efficiency, times that of YK-210",293T cells [3]; Fluc-mRNA LNP,4.55 times
same,"fluorescence absorption value / cell transfection efficiency, times that of YK-211",293T cells [3]; Fluc-mRNA LNP,15.37 times
same,"fluorescence absorption value / cell transfection efficiency, times that of YK-212",293T cells [3]; Fluc-mRNA LNP,5.39 times
same,"fluorescence absorption value / cell transfection efficiency, times that of YK-213",293T cells [3]; Fluc-mRNA LNP,15.43 times
same,"fluorescence absorption value / cell transfection efficiency, times that of YK-214",293T cells [3]; Fluc-mRNA LNP,4.60 times
same,"fluorescence absorption value / cell transfection efficiency, times that of YK-215",293T cells [3]; Fluc-mRNA LNP,21.46 times
same,"fluorescence absorption value / cell transfection efficiency, times that of YK-216",293T cells [3]; Fluc-mRNA LNP,9.24 times
same,"fluorescence absorption value / cell transfection efficiency, times that of YK-217",293T cells [3]; Fluc-mRNA LNP,293.09 times
same,"fluorescence absorption value / cell transfection efficiency, times that of YK-218",293T cells [3]; Fluc-mRNA LNP,34.69 times
same,"fluorescence absorption value / cell transfection efficiency, times that of YK-219",293T cells [3]; Fluc-mRNA LNP,13.98 times
same,"fluorescence absorption value / cell transfection efficiency, times that of YK-220",293T cells [3]; Fluc-mRNA LNP,97.32 times
same,"fluorescence absorption value, times that of YK-222",293T cells [3]; Fluc-mRNA LNP,34.73 times
same,Multiples of values that equivalent to YK-209,293T cells [3]; RLU of YK-209 / RLU of the named lipid,1.00
